This note sets out measurements from patent US20120090502A1, “DIS-AZO COMPOUND AND OIL INK AND ELECTROWETTING DISPLAYS COMPRISING THE SAME” (JINTEX CORPORATION LTD., priority 2010, published 2012).

Format in all cases: physicochemical
One series in a line: solubility in dodecane.
A short description of series [1]: oil ink tested by UV-Vis spectrophotometer. Also on record: FoM / value of a / value of b: scale not given here. The settings on record: oil ink in dodecane; for FoM: Figure of Merit = ε×C; for full width at half maximum (nm): wavelength range at half height of absorption at λ max. As to the method:
1.0 g of purified dye (dis-azo compound of the present invention) weighed was dispersed in 10 g of dodecane and then heated to 80° C. and stirred for one hour. After that, the mixture solution was removed to a ultrasonic oscillator and oscillated for one hour and then filtered through 0.45 μm filter to obtain the oil ink of the present invention. The oil ink of the present invention was tested by UV-Vis spectrophotometer. According to Table 3, ail of the oil ink of the present invention fulfills elementary conditions of oil ink for electrowetting display.

The nature of series [2]: maximum absorption wavelength and molar absorption coefficient in dodecane. As to conditions: for wavelength (nm)/dodecane: maximum absorption wavelength.
Series [3] in a line: oil ink performance test: viscosity and surface tension. Also on record: surface tension (dyne/cm^2): unit not given here. The settings on record: for surface tension (dyne/cm^2): oil ink in dodecane; for viscosity (cp): oil ink: 1.0 g dye dispersed in 10 g dodecane, filtered 0.45 μm. Here is the method: 1.0 g of purified dye (dis-azo compound of the present invention) weighed was dispersed in 10 g of dodecane and then heated to 80° C. and stirred for one hour. After that, the mixture solution was removed to a ultrasonic oscillator and oscillated for one hour and then filtered through 0.45 μm filter to obtain the oil ink of the present invention. […] According to Table 3, ail of the oil ink of the present invention fulfills elementary conditions of oil ink for electrowetting display.

Consider `CCCCCCCCCCc1ccc(N=Nc2ccc(N=Nc3ccc4c5c(cccc35)NC(C)(CCCC)N4)c3ccccc23)cc1` (racemic) [D10-C1,4], for which the “solubility (%)” value in the series “solubility in dodecane” turned out to be 2.15%. For the same compound, in series [1], the FoM is given as 232 and the “full width at half maximum (nm)” value stood at 320 nm. Also, in series [2], the “ε (molar absorption coefficient)” value was 9.11 × 10^3 and the “wavelength (nm)/dodecane” value stood at 560 nm. In series [3], the “surface tension (dyne/cm^2)” value came out at 23.6 and the “viscosity (cp)” value was determined as 2.42 cp.

Regarding `CCCCc1ccc(N=Nc2ccc(N=Nc3ccc4c5c(cccc35)NC(CC(C)C)(CC(C)C)N4)c3ccccc23)cc1` [D4-C4,4], the “solubility (%)” value in the series “solubility in dodecane” is given as 4.00%. Also, in series [1], the FoM stood at 191 and the “full width at half maximum (nm)” value worked out at 250 nm. Also, in series [2], the “ε (molar absorption coefficient)” value is 3.41 × 10^3 and the “wavelength (nm)/dodecane” value is 560 nm. For the same compound, in series [3], the “surface tension (dyne/cm^2)” value is on record as 24.5 and the “viscosity (cp)” value is recorded as 2.21 cp.

`CCCCCCCCc1ccc(N=Nc2ccc(N=Nc3ccc4c5c(cccc35)NC(CC)(CC)N4)c3ccccc23)cc1` [D8-C2,2]: the “solubility (%)” value in “solubility in dodecane” is listed as 6.00%. Also, in series [1], the FoM turned out to be 526 and the “full width at half maximum (nm)” value stood at 300 nm. For the same compound, in series [2], the “ε (molar absorption coefficient)” value is on record as 7.05 × 10^3 and the “wavelength (nm)/dodecane” value is reported as 580 nm. For the same compound, in series [3], the “surface tension (dyne/cm^2)” value was 23.2 and the “viscosity (cp)” value stood at 2.42 cp.

`CCCCCCCCc1ccc(N=Nc2ccc(N=Nc3ccc4c5c(cccc35)NC(CC(C)C)(CC(C)C)N4)c3ccccc23)cc1` [D8-C4,4]: in “solubility in dodecane”, the “solubility (%)” value is given as 2.96%. For the same compound, in series [1], the FoM came to 320 and the “full width at half maximum (nm)” value is 300 nm. Besides, in series [2], the “ε (molar absorption coefficient)” value was 9.50 × 10^3 and the “wavelength (nm)/dodecane” value was 580 nm. Further, in series [3], the “surface tension (dyne/cm^2)” value was found to be 23.5 and the “viscosity (cp)” value is 2.33 cp.

On to `CCCCCCCCCCc1ccc(N=Nc2ccc(N=Nc3ccc4c5c(cccc35)NC(CC)(CC)N4)c3ccccc23)cc1` [D10-C2,2], for which, in the series “solubility in dodecane”, the “solubility (%)” value is on record as 8.00%. For the same compound, in series [1], the FoM was found to be 779 and the “full width at half maximum (nm)” value was 320 nm. Further, in series [1] (hue), the “value of L” value is recorded as 0.01, the value of a is on record as 0.38 and the value of b is recorded as −0.18. In addition, in series [2], the “ε (molar absorption coefficient)” value is listed as 8.13 × 10^3 and the “wavelength (nm)/dodecane” value was 580 nm. Moreover, in series [3], the “surface tension (dyne/cm^2)” value was found to be 25.1 and the “viscosity (cp)” value is reported as 2.35 cp.

Consider `CCCCCCCCCCc1ccc(N=Nc2ccc(N=Nc3ccc4c5c(cccc35)NC(CC(C)C)(CC(C)C)N4)c3ccccc23)cc1` [D10-C4,4], for which the “solubility (%)” value in the series “solubility in dodecane” was found to be 1.23%. Moreover, in series [1], the FoM is on record as 136 and the “full width at half maximum (nm)” value is reported as 320 nm. In addition, in series [2], the “ε (molar absorption coefficient)” value was 9.95 × 10^3 and the “wavelength (nm)/dodecane” value came out at 590 nm. In series [3], the “surface tension (dyne/cm^2)” value was determined as 24.8 and the “viscosity (cp)” value is 2.55 cp.
